# Reference: the supplement of paper PMC10307832
# Legend:
# Assay in all cases: relative viability (nuclei count vs DMSO), 5 days (fraction); higher = more cells survive
# 201T = system: 201T
# Outline: (§1)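 Each reported value is a median over duplicate plates. It expresses relative viability: treated-well nuclei count divided by vehicle-well nuclei count. Lung cancer cell lines in 1536-well plates were dosed by pin tool a day after seeding, alone with one drug or with a fixed anchor-drug dose plus five library-drug doses (not always all listed) in √10 steps, and nuclei were counted after 5 days.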
# A-427 = system: A-427
# Outline: as §1
# BEN = system: BEN
# Outline: as §1
# COR-L23 = system: COR-L23
# Outline: as §1
# EKVX = system: EKVX
# Outline: as §1
# HARA = system: HARA
# Outline: as §1
# HCC-15 = system: HCC-15
# Outline: as §1
# HCC-827 = system: HCC-827
# Outline: as §1
# NCI-H1437 = system: NCI-H1437
# Outline: as §1
# NCI-H1650 = system: NCI-H1650
# Outline: as §1
# NCI-H1792 = system: NCI-H1792
# Outline: as §1
# NCI-H1975 = system: NCI-H1975
# Outline: as §1
# NCI-H2342 = system: NCI-H2342
# Outline: as §1
# NCI-H23 = system: NCI-H23
# Outline: as §1
# NCI-H358 = system: NCI-H358
# Outline: as §1
# NCI-H441 = system: NCI-H441
# Outline: as §1
# NCI-H596 = system: NCI-H596
# Outline: as §1
# NCI-H650 = system: NCI-H650
# Outline: as §1
# NCI-H838 = system: NCI-H838
# Outline: as §1
# SK-MES-1 = system: SK-MES-1
# Outline: as §1
# SW 900 = system: SW 900
# Outline: as §1
smiles,measurement,setting,value
Nc1ccn([C@@H]2O[C@H](CO)[C@@H](O)[C@@H]2O)c(=O)n1 [Cytarabine] + Cc1nc(Nc2ncc(C(=O)Nc3c(C)cccc3Cl)s2)cc(N2CCN(CCO)CC2)n1 [Dasatinib] (partner 0.075 µM),relative viability,201T; first compound 0.005 µM,0.659
same,relative viability,201T; first compound 0.01581 µM,0.642
same,relative viability,201T; first compound 0.05 µM,0.709
same,relative viability,201T; first compound 0.1581 µM,0.444
same,relative viability,201T; first compound 0.5 µM,0.501
same,relative viability,A-427; first compound 0.005 µM,0.591
same,relative viability,A-427; first compound 0.01581 µM,0.215
same,relative viability,A-427; first compound 0.05 µM,0.195
same,relative viability,A-427; first compound 0.1581 µM,0.141
same,relative viability,A-427; first compound 0.5 µM,0.135
same,relative viability,BEN; first compound 0.005 µM,0.332
same,relative viability,BEN; first compound 0.01581 µM,0.312
same,relative viability,BEN; first compound 0.05 µM,0.204
same,relative viability,BEN; first compound 0.1581 µM,0.175
same,relative viability,BEN; first compound 0.5 µM,0.213
same,relative viability,COR-L23; first compound 0.005 µM,0.405
same,relative viability,COR-L23; first compound 0.01581 µM,0.312
same,relative viability,COR-L23; first compound 0.05 µM,0.287
same,relative viability,COR-L23; first compound 0.1581 µM,0.17
same,relative viability,COR-L23; first compound 0.5 µM,0.14
same,relative viability,EKVX; first compound 0.005 µM,0.567
same,relative viability,EKVX; first compound 0.01581 µM,0.416
same,relative viability,EKVX; first compound 0.05 µM,0.456
same,relative viability,EKVX; first compound 0.1581 µM,0.357
same,relative viability,EKVX; first compound 0.5 µM,0.273
same,relative viability,HARA; first compound 0.005 µM,0.309
same,relative viability,HARA; first compound 0.01581 µM,0.222
same,relative viability,HARA; first compound 0.05 µM,0.227
same,relative viability,HARA; first compound 0.1581 µM,0.0854
same,relative viability,HARA; first compound 0.5 µM,0.0721
same,relative viability,HCC-15; first compound 0.005 µM,0.559
same,relative viability,HCC-15; first compound 0.01581 µM,0.679
same,relative viability,HCC-15; first compound 0.05 µM,0.683
same,relative viability,HCC-15; first compound 0.1581 µM,0.479
same,relative viability,HCC-15; first compound 0.5 µM,0.401
same,relative viability,HCC-827; first compound 0.005 µM,0.445
same,relative viability,HCC-827; first compound 0.01581 µM,0.397
same,relative viability,HCC-827; first compound 0.05 µM,0.4
same,relative viability,HCC-827; first compound 0.1581 µM,0.226
same,relative viability,HCC-827; first compound 0.5 µM,0.227
same,relative viability,NCI-H1437; first compound 0.005 µM,0.395
same,relative viability,NCI-H1437; first compound 0.01581 µM,0.26
same,relative viability,NCI-H1437; first compound 0.05 µM,0.228
same,relative viability,NCI-H1437; first compound 0.1581 µM,0.142
same,relative viability,NCI-H1437; first compound 0.5 µM,0.165
same,relative viability,NCI-H1650; first compound 0.005 µM,0.257
same,relative viability,NCI-H1650; first compound 0.01581 µM,0.234
same,relative viability,NCI-H1650; first compound 0.05 µM,0.177
same,relative viability,NCI-H1650; first compound 0.1581 µM,0.136
same,relative viability,NCI-H1650; first compound 0.5 µM,0.122
same,relative viability,NCI-H1792; first compound 0.005 µM,1.34
same,relative viability,NCI-H1792; first compound 0.01581 µM,0.657
same,relative viability,NCI-H1792; first compound 0.05 µM,0.603
same,relative viability,NCI-H1792; first compound 0.1581 µM,0.503
same,relative viability,NCI-H1792; first compound 0.5 µM,0.355
same,relative viability,NCI-H1975; first compound 0.005 µM,0.329
same,relative viability,NCI-H1975; first compound 0.01581 µM,0.47
same,relative viability,NCI-H1975; first compound 0.05 µM,0.338
same,relative viability,NCI-H1975; first compound 0.1581 µM,0.297
same,relative viability,NCI-H1975; first compound 0.5 µM,0.191
same,relative viability,NCI-H2342; first compound 0.005 µM,0.309
same,relative viability,NCI-H2342; first compound 0.01581 µM,0.295
same,relative viability,NCI-H2342; first compound 0.05 µM,0.262
same,relative viability,NCI-H2342; first compound 0.1581 µM,0.257
same,relative viability,NCI-H2342; first compound 0.5 µM,0.277
same,relative viability,NCI-H23; first compound 0.005 µM,0.864
same,relative viability,NCI-H23; first compound 0.01581 µM,0.541
same,relative viability,NCI-H23; first compound 0.05 µM,0.655
same,relative viability,NCI-H23; first compound 0.1581 µM,0.236
same,relative viability,NCI-H23; first compound 0.5 µM,0.187
same,relative viability,NCI-H358; first compound 0.005 µM,0.206
same,relative viability,NCI-H358; first compound 0.01581 µM,0.167
same,relative viability,NCI-H358; first compound 0.05 µM,0.131
same,relative viability,NCI-H358; first compound 0.1581 µM,0.0707
same,relative viability,NCI-H358; first compound 0.5 µM,0.0702
same,relative viability,NCI-H441; first compound 0.005 µM,0.545
same,relative viability,NCI-H441; first compound 0.01581 µM,0.533
same,relative viability,NCI-H441; first compound 0.05 µM,0.485
same,relative viability,NCI-H441; first compound 0.1581 µM,0.324
same,relative viability,NCI-H441; first compound 0.5 µM,0.293
same,relative viability,NCI-H596; first compound 0.005 µM,0.606
same,relative viability,NCI-H596; first compound 0.01581 µM,0.477
same,relative viability,NCI-H596; first compound 0.05 µM,0.601
same,relative viability,NCI-H596; first compound 0.1581 µM,0.48
same,relative viability,NCI-H596; first compound 0.5 µM,0.427
same,relative viability,NCI-H650; first compound 0.005 µM,0.474
same,relative viability,NCI-H650; first compound 0.01581 µM,0.399
same,relative viability,NCI-H650; first compound 0.05 µM,0.257
same,relative viability,NCI-H650; first compound 0.1581 µM,0.213
same,relative viability,NCI-H650; first compound 0.5 µM,0.165
same,relative viability,NCI-H838; first compound 0.005 µM,0.281
same,relative viability,NCI-H838; first compound 0.01581 µM,0.274
same,relative viability,NCI-H838; first compound 0.05 µM,0.229
same,relative viability,NCI-H838; first compound 0.1581 µM,0.214
same,relative viability,NCI-H838; first compound 0.5 µM,0.164
same,relative viability,SK-MES-1; first compound 0.005 µM,0.213
same,relative viability,SK-MES-1; first compound 0.01581 µM,0.174
same,relative viability,SK-MES-1; first compound 0.05 µM,0.127
same,relative viability,SK-MES-1; first compound 0.1581 µM,0.117
same,relative viability,SK-MES-1; first compound 0.5 µM,0.113
same,relative viability,SW 900; first compound 0.005 µM,0.837
same,relative viability,SW 900; first compound 0.01581 µM,0.446
same,relative viability,SW 900; first compound 0.05 µM,0.314
